Experimental data: patent publication US20200254026A1, “AGENT FOR PROMOTING MIGRATION OF PLURIPOTENT STEM CELLS” (NIPPON ZOKI PHARMACEUTICAL CO., LTD., priority 2015, published 2020)

Tested on: Muse cells (SSEA-3-positive cells)
Experiment: Cell mobility analysis (EZ-TAXIScan), chemotactic ability of Muse cells
Type: cell-based
Conditions: SSEA-3-positive cells from human bone marrow mesenchymal stem cells; 2 μM S1P as positive control; photographed every 10 minutes
Description: Mesenchymal stem cells derived from human bone marrow in a concentration of 1×10^7 cells/mL were prepared using an FACS buffer containing Dulbecco PBS, 0.5% bovine serum albumin, and 2 mM EDTA (ethylenediaminetetraacetic acid). Thereto, an anti-SSEA-3 antibody (diluted 400 times) was added as a primary antibody. Reaction was allowed to proceed on ice for 1 hour while being suspended at appropriate times, followed by centrifugation for supernatant removal. Then, the addition and removal of an FACS buffer were repeated three times for rinsing. Thereto, an FITC-labeled anti-rat-IgM antibody (diluted 100 times) was added as a secondary antibody. Subsequently, in the same manner as above, reaction was allowed to proceed on ice for 1 hour and then addition and removal of an FACS buffer were repeated three times for rinsing. SSEA-3-positive cells were separated by FACS the day before measurement, followed by overnight culturing under conditions of 37° C. and 5% CO2. […] The resulting cell suspension was injected into each well of an EZ-[…] (registered trademark; the same applies hereinafter) holder chamber (GE Healthcare), and the cells were aligned properly in front of a terrace by a water-level difference method. […] The EZ-[…] holder chamber was placed in an incubator under conditions of 37° C. and 5% CO2. […]

SMILES: CCCCCCCCCCCCC/C=C/[C@@H](O)[C@@H](N)COP(=O)(O)O [S1P, sphingosine-1-phosphate]
- movement of Muse cells (chemotactic ability with time): same movement of Muse cells was observed
